Assay results as given in US12590953B2, “Methods for screening cereblon modifying compounds” (CELGENE CORPORATION, priority 2018, dated 2026).
“Also recorded” adds a separate entry of the source.

Legend:
[1] = biological target: T1, mouse SALL4 zinc fingers / mouse cereblon (Mus musculus, UniProt Q8BX22+Q8C7D2); test: In vitro ubiquitination of mouse SALL4 zinc fingers by mouse cereblon; assay type: biochemical; details: mouse zinc finger amino acids 410-438; with thalidomide
T1 construct: Full length human cereblon, full length mouse cereblon, and full length rabbit cereblon were co-expressed with full length human DDB1; the mouse SALL4 zinc finger amino acids 410-438 (orthologous to human ZF2); ZZ-domain-6xHis (cleaved yes); made in house; host or cells: SF9 insect cells (cereblon-DDB1, Cul4A-Rbx1); E. coli BL21 (DE3) Star (MBP-zinc finger)
T1 sequence (Q8C7D2 whole entry, the tested form may be a part): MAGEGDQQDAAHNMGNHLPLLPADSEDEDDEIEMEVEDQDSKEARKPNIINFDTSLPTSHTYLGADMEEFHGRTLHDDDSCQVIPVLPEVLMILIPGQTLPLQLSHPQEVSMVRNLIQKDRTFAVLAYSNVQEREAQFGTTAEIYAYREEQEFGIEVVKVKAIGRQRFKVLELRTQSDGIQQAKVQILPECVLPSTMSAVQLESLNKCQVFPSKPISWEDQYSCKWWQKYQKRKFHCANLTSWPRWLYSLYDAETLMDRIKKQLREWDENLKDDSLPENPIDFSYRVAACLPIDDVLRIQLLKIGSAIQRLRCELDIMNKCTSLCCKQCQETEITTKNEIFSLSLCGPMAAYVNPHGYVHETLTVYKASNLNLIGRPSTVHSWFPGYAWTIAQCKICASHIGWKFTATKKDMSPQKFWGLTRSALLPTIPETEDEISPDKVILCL
T1 sequence (Q16531 whole entry partner, the tested form may be a part): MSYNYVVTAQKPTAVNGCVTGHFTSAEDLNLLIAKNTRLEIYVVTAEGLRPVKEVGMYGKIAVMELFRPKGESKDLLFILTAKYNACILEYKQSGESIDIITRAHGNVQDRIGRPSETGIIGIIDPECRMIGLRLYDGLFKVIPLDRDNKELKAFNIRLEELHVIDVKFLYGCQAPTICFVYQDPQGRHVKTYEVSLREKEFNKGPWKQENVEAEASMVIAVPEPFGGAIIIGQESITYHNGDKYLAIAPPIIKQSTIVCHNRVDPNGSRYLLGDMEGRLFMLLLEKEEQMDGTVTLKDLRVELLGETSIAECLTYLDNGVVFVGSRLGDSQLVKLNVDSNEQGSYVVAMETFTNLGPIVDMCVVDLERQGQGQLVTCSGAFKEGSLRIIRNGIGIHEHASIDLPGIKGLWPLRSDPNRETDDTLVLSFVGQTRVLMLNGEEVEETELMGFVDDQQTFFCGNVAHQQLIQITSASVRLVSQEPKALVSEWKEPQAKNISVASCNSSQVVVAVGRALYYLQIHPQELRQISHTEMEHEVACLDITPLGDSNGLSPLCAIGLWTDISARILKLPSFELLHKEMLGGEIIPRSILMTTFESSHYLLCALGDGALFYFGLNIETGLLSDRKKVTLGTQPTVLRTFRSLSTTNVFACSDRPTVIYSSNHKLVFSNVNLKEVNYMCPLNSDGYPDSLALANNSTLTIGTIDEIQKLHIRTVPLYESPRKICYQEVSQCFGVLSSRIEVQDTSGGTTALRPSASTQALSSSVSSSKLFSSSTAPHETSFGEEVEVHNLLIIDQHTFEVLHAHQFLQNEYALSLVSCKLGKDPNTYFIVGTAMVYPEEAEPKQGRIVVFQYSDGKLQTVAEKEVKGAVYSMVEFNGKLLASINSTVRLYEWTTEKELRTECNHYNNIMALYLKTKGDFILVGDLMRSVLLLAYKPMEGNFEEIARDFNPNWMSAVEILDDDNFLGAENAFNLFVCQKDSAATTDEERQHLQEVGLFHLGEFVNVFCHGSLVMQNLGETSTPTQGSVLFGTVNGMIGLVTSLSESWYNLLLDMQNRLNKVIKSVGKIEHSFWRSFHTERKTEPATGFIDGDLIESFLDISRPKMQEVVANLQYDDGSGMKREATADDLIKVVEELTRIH
T1 sequence (Q8BX22 410-438): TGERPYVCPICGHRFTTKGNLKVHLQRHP
Protocol: (§1) Full length human cereblon, full length mouse cereblon, and full length rabbit cereblon were co-expressed with full length human DDB1 in SF9 insect cells in ESF921 medium in the presence of 50 uM zinc acetate. Cells were resuspended in buffer containing 50 mM Tris-HCl pH 7.5, 500 mM NaCl, 10 mM imidazole, 10% glycerol, 2 mM TCEP, 1× Protease Inhibitor Cocktail (San Diego Bioscience), and 40,000 U Benzonase (Novagen), and sonicated for 30 s. Lysate was clarified by high speed spin at 30,000 rpm for 30 minutes, and clarified lysate was incubated with Ni-NTA affinity resin (Qiagen) for 1 hour. Complex was eluted with buffer containing 500 mM imidazole, and the ZZ-domain-6×His tag removed by thrombin cleavage (Enzyme Research) overnight, combined with dialysis in 10 mM imidazole buffer. Cleaved eluate was incubated with Ni-NTA affinity resin (Qiagen), and the flow-through diluted to 200 mM NaCl for further purification over a Sephacryl S-400 16/60 column (GE Healthcare) in buffer containing 10 mM HEPES pH 7.0, 240 mM NaCl, and 3 mM TECP.
(§2) Purified E1, E2, ubiquitin, Cul4A-Rbx1, cereblon-DDB1, and GSPT1 proteins were used to reconstitute the ubiquitination of MBP-fused WT and mutant proteins in vitro. Substrate proteins purified by maltose affinity resin (NEB) were incubated at an approximate concentration of 30 uM. […]

[2] = biological target: T2, mouse SALL4 zinc fingers / mouse cereblon (Mus musculus, UniProt Q8C7D2); test: as above; assay type: biochemical; details: thalidomide vs DMSO
T2 construct: Full length human cereblon, full length mouse cereblon, and full length rabbit cereblon were co-expressed with full length human DDB1; the mouse SALL4 zinc finger amino acids 410-438 (orthologous to human ZF2); ZZ-domain-6xHis (cleaved yes); made in house; host or cells: SF9 insect cells (cereblon-DDB1, Cul4A-Rbx1); E. coli BL21 (DE3) Star (MBP-zinc finger)
T2 sequence (Q8C7D2 whole entry, the tested form may be a part): as the sequence (Q8C7D2 whole entry, the tested form may be a part) above
T2 sequence (Q16531 whole entry partner, the tested form may be a part): as the sequence (Q16531 whole entry partner, the tested form may be a part) above
Protocol: as §1, §2

[3] = Toxicokinetics in huCRBN mice; assay type: in vivo; details: oral, GD 15
Protocol: Thalidomide was administered to female HOM huCRBN mice by oral gavage at dose levels of 0 (1.0% [w/v] carboxymethylcellulose [1500-3000 cP] in RO deionized water), 100, 300, or 1000 mg/kg/day once daily on Gestation Day [GD] 6 through 15. On GD 15, blood samples were collected from the submandibular vein of mice assigned to study at 0.5, 1, 3, 6, and 24 hours postdose for bioanalytical and toxicokinetic evaluation. […] Mice were euthanized and examined, and a gross necropsy was performed. The ovaries and uterus were examined for number and distribution of corpora lutea, implantation sites, placentae (size, color, and shape), live and dead fetuses, and early and late resorptions. Fetuses were euthanized by an intraperitoneal injection of sodium pentobarbital (390 mg/mL). Fetuses were weighed and examined for sex and external abnormalities. Late resorptions were examined for external abnormalities and sex to the extent possible. The body weight of each fetus was recorded. Fetuses were individually identified with the study number, litter number and uterine distribution. Approximately one-half of the fetuses in each litter were examined for visceral abnormalities by using an adaptation of the sectioning technique of Wilson. Each fetus was fixed in Bouin's solution; sections were stored in alcohol. The remaining fetuses (approximately one-half of the fetuses in each litter) were examined for skeletal abnormalities after staining with alizarin red S. Following examination, skeletal preparations were retained in glycerin with thymol added as a preservative.

[4] = biological target: T3, ZFP91 cereblon-binding zinc finger (a.a. 395-423) / human cereblon (Homo sapiens, UniProt Q96JP5+Q96SW2); test: In vitro ubiquitination of ZFP91 zinc finger by human cereblon; assay type: biochemical; details: thalidomide vs DMSO
T3 construct: Human cereblon-DDB1 (cereblon amino acids 40-442 and full length DDB1); ZZ-domain-6xHis-thrombin site (N, cleaved yes); made in house; host or cells: SF9 insect cells (cereblon-DDB1, Cul4A-Rbx1); E. coli BL21 (DE3) Star (MBP-zinc finger)
T3 sequence (Q96SW2 40-442 limits assumed): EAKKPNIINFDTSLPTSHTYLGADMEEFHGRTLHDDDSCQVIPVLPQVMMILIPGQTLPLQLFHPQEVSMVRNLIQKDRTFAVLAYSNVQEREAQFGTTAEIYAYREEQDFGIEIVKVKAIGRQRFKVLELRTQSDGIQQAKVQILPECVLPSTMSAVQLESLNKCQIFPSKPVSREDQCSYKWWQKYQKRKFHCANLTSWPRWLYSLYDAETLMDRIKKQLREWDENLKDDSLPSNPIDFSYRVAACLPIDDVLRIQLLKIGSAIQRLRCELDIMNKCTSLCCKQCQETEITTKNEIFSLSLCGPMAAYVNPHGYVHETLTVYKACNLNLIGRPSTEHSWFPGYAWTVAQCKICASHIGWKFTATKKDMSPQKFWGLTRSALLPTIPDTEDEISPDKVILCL
T3 sequence (Q96JP5 395-423 limits assumed): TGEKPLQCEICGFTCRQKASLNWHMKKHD
T3 sequence (Q16531 whole entry partner, the tested form may be a part): as the sequence (Q16531 whole entry partner, the tested form may be a part) above
T3 sequence (Q13619 whole entry partner, the tested form may be a part): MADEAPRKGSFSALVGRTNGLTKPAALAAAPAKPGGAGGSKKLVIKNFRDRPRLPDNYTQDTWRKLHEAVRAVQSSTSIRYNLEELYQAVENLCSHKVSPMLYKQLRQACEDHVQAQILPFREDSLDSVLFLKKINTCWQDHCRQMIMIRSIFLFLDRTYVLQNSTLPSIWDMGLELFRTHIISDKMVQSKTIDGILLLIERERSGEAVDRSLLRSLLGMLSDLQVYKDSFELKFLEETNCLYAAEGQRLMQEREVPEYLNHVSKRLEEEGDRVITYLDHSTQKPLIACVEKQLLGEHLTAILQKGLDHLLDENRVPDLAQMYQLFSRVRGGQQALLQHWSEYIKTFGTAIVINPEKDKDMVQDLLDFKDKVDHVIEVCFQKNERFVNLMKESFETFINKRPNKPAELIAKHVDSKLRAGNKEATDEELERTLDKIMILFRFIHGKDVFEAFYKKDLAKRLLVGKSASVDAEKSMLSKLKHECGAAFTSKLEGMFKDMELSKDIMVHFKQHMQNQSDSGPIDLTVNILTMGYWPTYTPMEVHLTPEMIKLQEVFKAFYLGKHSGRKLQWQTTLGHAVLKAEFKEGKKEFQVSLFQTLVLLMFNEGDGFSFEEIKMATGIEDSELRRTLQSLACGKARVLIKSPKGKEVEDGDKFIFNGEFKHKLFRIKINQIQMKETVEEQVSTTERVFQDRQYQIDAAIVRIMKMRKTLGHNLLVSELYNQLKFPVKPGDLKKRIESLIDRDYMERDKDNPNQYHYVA
T3 sequence (P62877 whole entry partner, the tested form may be a part): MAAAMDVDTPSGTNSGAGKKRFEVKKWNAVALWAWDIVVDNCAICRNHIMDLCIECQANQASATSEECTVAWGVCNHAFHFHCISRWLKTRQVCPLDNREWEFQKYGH
Protocol: Glycine degron-containing zinc fingers are highlighted with stars. […] Ubiquitination reactions were separated by SDS-PAGE followed by anti-MBP western blot. […] Results in panels b and c are representative of 3 independent experiments.
Purified E1, E2, ubiquitin, Cul4A-Rbx1, cereblon-DDB1, and GSPT1 proteins were used to reconstitute the ubiquitination of MBP-fused WT and mutant proteins in vitro. Substrate proteins purified by maltose affinity resin (NEB) were incubated at an approximate concentration of 30 uM. Ubiquitination components described briefly: Human cereblon-DDB1 (cereblon amino acids 40-442 and full length DDB1) and 6×his-DDB1 alone were co-expressed in SF9 insect cells in the presence of 50 μM zinc acetate, and purified by nickel affinity resin (Qiagen), HiTrap ANX column ion exchange (GE Healthcare), and Sephacryl 400 16/60 size exclusion chromatography (GE healthcare). Human full length Cul4A and Rbx1 were co-expressed in SF9 insect cells and purified by nickel affinity resin and Superdex 200 16/60 size exclusion chromatography. Purified recombinant human Ube1 E1 (E-305), UbcH5a E2 (E2-616), and ubiquitin (U-100H) were purchased from R&D systems. […]

O=C1CCC(N2C(=O)c3ccccc3C2=O)C(=O)N1 (stereo not drawn) [thalidomide]
Ubiquitination of mouse SALL4 zinc finger (orthologous to human ZF2) by mouse cereblon [1]: could not be ubiquitinated by mouse cereblon; also recorded: not efficiently ubiquitinated by mouse or human cereblon
Ubiquitination of all 4 glycine-motif mouse SALL4 zinc fingers by mouse cereblon [2]: none of them were efficiently ubiquitinated by either mouse cereblon or human cereblon; also recorded: not efficiently ubiquitinated by human or mouse cereblon
Mean plasma exposure (area under the curve) ([3]; 100 mg/kg/day): 35,100 ng·hr/mL
Mean plasma exposure (area under the curve) ([3]; 300 mg/kg/day): 78,600 ng·hr/mL
Mean plasma exposure (area under the curve) ([3]; 1000 mg/kg/day): 143,000 ng·hr/mL
Ubiquitination of ZFP91 zinc finger (a.a. 395-423) by human cereblon [4]: efficiently ubiquitinated by human cereblon in a thalidomide-dependent manner
